Source: the supplement of paper PMC10307832

Key:
Test in all cases: relative viability (nuclei count vs DMSO), 5 days (fraction); higher = more cells survive
Zosuquidar + Phenformin = compound: O[C@@H](COc1cccc2ncccc12)CN1CCN([C@@H]2c3ccccc3[C@@H]3[C@H](c4ccccc42)C3(F)F)CC1 [Zosuquidar] + N=C(N)NC(=N)NCCc1ccccc1 [Phenformin] (partner 250 µM)
Procedure, shortened: (§1)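 The day after seeding in 1536-well plates, lung cancer cell lines were treated by pin tool with a single drug, or with a fixed anchor-drug dose together with five library-drug doses (not always all listed) in √10 steps. After 5 days, a combined fix-and-stain solution (final 0.05% Triton X-100, 1% formaldehyde, 1 ug/ml Hoechst) was added. Nuclei counted on 4× images gave relative viability as treated counts over vehicle counts, reported as the median of duplicate plates.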

Kobe2602 + OSI-027 = compound: C1=CC(=CC=C1NC(=S)NNC2=C(C=C(C=C2[N+](=O)[O-])C(F)(F)F)[N+](=O)[O-])F [Kobe2602] + COc1cccc2cc(-c3nc([C@H]4CC[C@H](C(=O)O)CC4)n4ncnc(N)c34)[nH]c12 [OSI-027] (partner 0.5 µM)
Procedure, shortened: as §1

Cabozantinib + AZD7762 = compound: COc1cc2nccc(Oc3ccc(NC(=O)C4(C(=O)Nc5ccc(F)cc5)CC4)cc3)c2cc1OC [Cabozantinib] + NC(=O)Nc1cc(-c2cccc(F)c2)sc1C(=O)N[C@H]1CCCNC1 [AZD7762] (partner 0.2 µM)
Procedure, shortened: as §1

Zosuquidar + OSI-027 = compound: O[C@@H](COc1cccc2ncccc12)CN1CCN([C@@H]2c3ccccc3[C@@H]3[C@H](c4ccccc42)C3(F)F)CC1 [Zosuquidar] + COc1cccc2cc(-c3nc([C@H]4CC[C@H](C(=O)O)CC4)n4ncnc(N)c34)[nH]c12 [OSI-027] (partner 0.5 µM)
Procedure, shortened: as §1

Cell Line	relative viability (Zosuquidar + Phenformin; first compound 0.01 µM)	relative viability (Zosuquidar + Phenformin; first compound 0.03162 µM)	relative viability (Zosuquidar + Phenformin; first compound 0.1 µM)	relative viability (Zosuquidar + Phenformin; first compound 0.3162 µM)	relative viability (Zosuquidar + Phenformin; first compound 1 µM)	relative viability (Kobe2602 + OSI-027; first compound 0.2 µM)	relative viability (Kobe2602 + OSI-027; first compound 0.6325 µM)	relative viability (Kobe2602 + OSI-027; first compound 2 µM)	relative viability (Kobe2602 + OSI-027; first compound 6.325 µM)	relative viability (Kobe2602 + OSI-027; first compound 20 µM)	relative viability (Cabozantinib + AZD7762; first compound 0.02 µM)	relative viability (Cabozantinib + AZD7762; first compound 0.06325 µM)	relative viability (Cabozantinib + AZD7762; first compound 0.2 µM)	relative viability (Cabozantinib + AZD7762; first compound 0.6325 µM)	relative viability (Cabozantinib + AZD7762; first compound 2 µM)	relative viability (Zosuquidar + OSI-027; first compound 0.01 µM)	relative viability (Zosuquidar + OSI-027; first compound 0.03162 µM)	relative viability (Zosuquidar + OSI-027; first compound 0.1 µM)	relative viability (Zosuquidar + OSI-027; first compound 0.3162 µM)	relative viability (Zosuquidar + OSI-027; first compound 1 µM)
NCI-H358	0.278	0.293	0.281	0.359	0.335	0.754	0.872	0.873	0.672	0.887	0.457	0.715	0.499	0.544	0.62	0.779	0.769	0.618	0.736	0.734
NCI-H2342	0.581	0.558	0.49	0.581	0.623	0.762	0.546	0.614	0.63	0.632	0.401	0.69	0.624	0.535	0.415	0.605	0.597	0.558	0.668	0.624
LK-2	0.413	0.412	0.549	0.67	0.475	0.231	0.208	0.239	0.248	0.212	–	0.659	0.426	0.434	0.408	0.172	0.216	0.21	0.209	0.174
NCI-H1755	0.425	0.621	0.489	0.624	0.589	0.748	0.726	0.685	0.705	0.747	0.449	0.494	0.471	0.39	0.547	0.736	0.67	0.516	0.821	0.722
A-427	0.344	0.324	0.368	0.401	0.383	0.508	0.583	0.399	0.446	0.476	0.757	0.806	0.788	0.772	0.683	0.409	0.511	0.4	0.507	0.501
PC-3 [JPC-3]	0.493	0.493	0.462	0.46	0.453	0.715	0.736	0.74	0.784	0.759	0.633	0.888	–	0.859	0.798	0.738	0.787	0.562	0.789	0.796
LOU-NH91	0.62	0.702	–	0.768	0.692	0.739	0.786	0.69	0.754	0.71	0.637	0.862	0.703	0.752	0.768	0.623	0.664	–	0.781	0.713
BEN	0.268	0.245	0.263	0.265	0.26	0.295	0.293	0.326	0.282	0.319	0.624	0.891	0.746	0.773	0.59	0.31	0.297	0.288	0.301	0.313
NCI-H2085	0.736	0.682	0.479	0.877	0.69	0.685	0.898	–	0.677	0.799	1.08	1.06	0.766	0.768	0.727	0.707	0.779	0.468	0.84	0.746
LC-2-ad	0.584	0.561	0.576	0.626	0.55	0.775	0.823	0.824	0.865	1.02	0.766	0.98	0.79	0.902	0.866	0.865	0.814	0.829	1.09	0.864
ABC-1	0.253	0.257	0.252	0.256	0.266	0.582	0.501	–	0.585	0.628	0.678	0.843	0.733	0.844	0.632	0.479	0.426	0.607	0.54	0.509
NCI-H727	0.318	0.563	0.466	0.522	0.519	0.57	0.604	0.744	0.545	0.888	0.509	0.796	0.661	0.539	0.651	0.622	0.538	0.343	0.783	0.705
NCI-H1792	0.35	0.287	0.279	0.31	0.295	0.728	0.732	0.821	0.5	0.625	–	1.05	0.684	0.506	0.335	0.786	0.601	–	0.837	0.753
EPLC-272H	0.344	0.288	0.287	0.241	0.301	0.3	0.286	0.289	0.311	0.32	0.237	0.339	0.195	0.207	0.209	0.275	0.335	0.273	0.31	0.275
EKVX	0.231	0.252	0.189	0.243	0.227	0.684	0.68	0.707	0.659	0.695	0.693	0.856	0.558	0.703	0.763	0.743	0.622	0.536	0.707	0.762
NCI-H1666	0.542	0.577	0.571	0.584	0.521	0.879	0.831	0.851	0.928	0.789	0.712	1.02	0.763	0.921	0.814	0.844	0.919	0.8	0.957	0.957
